{"source": "paper PMC9653409", "about": "“Generative deep learning enables the discovery of a potent and selective RIPK1 inhibitor” (Nature Communications, 2022)", "assay_in_all_cases": "Kinase inhibitory activity profiling of RI-962@10 µM (406 kinases, Eurofins)", "assay_type_in_all_cases": "biochemical", "key": {"[1]": {"target": "panel of human kinases (kinase named in endpoint) (Homo sapiens, UniProt P08581, Y1230D)", "settings": "10 µM; read-out: Activity (%), Met(Y1248D)(h)", "method_in_brief": "(§1)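 Radiometric filter-binding kinase assays: enzyme preincubated 15 min with compound in 8 mM MOPS pH 7.0, 0.2 mM EDTA, 250 μM peptide substrate, 10 mM magnesium acetate, 10 μM [γ-33P]-ATP. Reaction started with Mg/ATP, run 40 min at room temperature, stopped with phosphoric acid; 33P incorporation read by scintillation counting. Other kinases by similar protocols.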"}, "[2]": {"target": "panel of human kinases (kinase named in endpoint) (Homo sapiens, UniProt Q9P286)", "settings": "10 µM; read-out: Activity (%), PAK5(h)", "method_in_brief": "as §1"}, "[3]": {"target": "panel of human kinases (kinase named in endpoint) (Homo sapiens, UniProt Q13627)", "settings": "10 µM; read-out: Activity (%), DYRK1A(h)", "method_in_brief": "as §1"}, "[4]": {"target": "panel of human kinases (kinase named in endpoint) (Homo sapiens, UniProt Q16512)", "settings": "10 µM; read-out: Activity (%), PRK1(h)", "method_in_brief": "as §1"}, "[5]": {"target": "panel of human kinases (kinase named in endpoint) (Homo sapiens, UniProt P29376)", "settings": "10 µM; read-out: Activity (%), LTK(h)", "method_in_brief": "as §1"}, "[6]": {"target": "panel of human kinases (kinase named in endpoint) (Homo sapiens, UniProt Q04771)", "settings": "10 µM; read-out: Activity (%), ALK2(h)", "method_in_brief": "as §1"}, "[7]": {"target": "panel of human kinases (kinase named in endpoint) (Homo sapiens, UniProt Q15835)", "settings": "10 µM; read-out: Activity (%), GRK1(h)", "method_in_brief": "as §1"}, "[8]": {"target": "panel of human kinases (kinase named in endpoint) (Homo sapiens, UniProt Q9UQ07)", "settings": "10 µM; read-out: Activity (%), MOK(h)", "method_in_brief": "as §1"}, "[9]": {"target": "panel of human kinases (kinase named in endpoint) (Homo sapiens, UniProt P42336, H1047R)", "settings": "10 µM; read-out: Activity (%), PI3 Kinase (p110a(H1047R)/p85a)(h)", "method_in_brief": "as §1"}, "[10]": {"target": "panel of human kinases (kinase named in endpoint) (Homo sapiens, UniProt Q8TDC3)", "sequence (Q8TDC3 whole entry)": "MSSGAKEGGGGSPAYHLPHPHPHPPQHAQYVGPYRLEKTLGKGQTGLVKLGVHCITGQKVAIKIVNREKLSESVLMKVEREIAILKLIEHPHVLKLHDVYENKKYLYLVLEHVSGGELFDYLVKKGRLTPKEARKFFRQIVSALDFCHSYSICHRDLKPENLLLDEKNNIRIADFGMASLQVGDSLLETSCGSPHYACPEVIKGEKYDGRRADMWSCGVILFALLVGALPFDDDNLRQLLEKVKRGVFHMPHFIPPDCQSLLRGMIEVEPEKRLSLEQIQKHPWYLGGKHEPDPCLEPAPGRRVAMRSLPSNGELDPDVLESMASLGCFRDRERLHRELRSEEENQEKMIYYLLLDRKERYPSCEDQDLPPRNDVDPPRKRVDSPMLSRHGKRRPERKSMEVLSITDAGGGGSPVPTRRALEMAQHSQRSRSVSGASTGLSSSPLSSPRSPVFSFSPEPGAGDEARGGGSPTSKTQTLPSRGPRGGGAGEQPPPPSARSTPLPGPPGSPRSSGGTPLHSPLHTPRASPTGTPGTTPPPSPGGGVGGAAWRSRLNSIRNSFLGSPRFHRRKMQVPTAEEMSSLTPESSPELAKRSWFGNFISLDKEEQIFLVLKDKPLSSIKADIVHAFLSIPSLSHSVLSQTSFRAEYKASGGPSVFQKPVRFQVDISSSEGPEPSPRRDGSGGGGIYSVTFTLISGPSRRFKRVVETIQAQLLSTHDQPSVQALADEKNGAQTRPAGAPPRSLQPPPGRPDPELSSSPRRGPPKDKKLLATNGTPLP", "settings": "10 µM; read-out: Activity (%), BrSK1(h)", "method_in_brief": "as §1"}, "[11]": {"target": "panel of human kinases (kinase named in endpoint) (Homo sapiens, UniProt Q5TCY1)", "sequence (Q5TCY1 whole entry)": "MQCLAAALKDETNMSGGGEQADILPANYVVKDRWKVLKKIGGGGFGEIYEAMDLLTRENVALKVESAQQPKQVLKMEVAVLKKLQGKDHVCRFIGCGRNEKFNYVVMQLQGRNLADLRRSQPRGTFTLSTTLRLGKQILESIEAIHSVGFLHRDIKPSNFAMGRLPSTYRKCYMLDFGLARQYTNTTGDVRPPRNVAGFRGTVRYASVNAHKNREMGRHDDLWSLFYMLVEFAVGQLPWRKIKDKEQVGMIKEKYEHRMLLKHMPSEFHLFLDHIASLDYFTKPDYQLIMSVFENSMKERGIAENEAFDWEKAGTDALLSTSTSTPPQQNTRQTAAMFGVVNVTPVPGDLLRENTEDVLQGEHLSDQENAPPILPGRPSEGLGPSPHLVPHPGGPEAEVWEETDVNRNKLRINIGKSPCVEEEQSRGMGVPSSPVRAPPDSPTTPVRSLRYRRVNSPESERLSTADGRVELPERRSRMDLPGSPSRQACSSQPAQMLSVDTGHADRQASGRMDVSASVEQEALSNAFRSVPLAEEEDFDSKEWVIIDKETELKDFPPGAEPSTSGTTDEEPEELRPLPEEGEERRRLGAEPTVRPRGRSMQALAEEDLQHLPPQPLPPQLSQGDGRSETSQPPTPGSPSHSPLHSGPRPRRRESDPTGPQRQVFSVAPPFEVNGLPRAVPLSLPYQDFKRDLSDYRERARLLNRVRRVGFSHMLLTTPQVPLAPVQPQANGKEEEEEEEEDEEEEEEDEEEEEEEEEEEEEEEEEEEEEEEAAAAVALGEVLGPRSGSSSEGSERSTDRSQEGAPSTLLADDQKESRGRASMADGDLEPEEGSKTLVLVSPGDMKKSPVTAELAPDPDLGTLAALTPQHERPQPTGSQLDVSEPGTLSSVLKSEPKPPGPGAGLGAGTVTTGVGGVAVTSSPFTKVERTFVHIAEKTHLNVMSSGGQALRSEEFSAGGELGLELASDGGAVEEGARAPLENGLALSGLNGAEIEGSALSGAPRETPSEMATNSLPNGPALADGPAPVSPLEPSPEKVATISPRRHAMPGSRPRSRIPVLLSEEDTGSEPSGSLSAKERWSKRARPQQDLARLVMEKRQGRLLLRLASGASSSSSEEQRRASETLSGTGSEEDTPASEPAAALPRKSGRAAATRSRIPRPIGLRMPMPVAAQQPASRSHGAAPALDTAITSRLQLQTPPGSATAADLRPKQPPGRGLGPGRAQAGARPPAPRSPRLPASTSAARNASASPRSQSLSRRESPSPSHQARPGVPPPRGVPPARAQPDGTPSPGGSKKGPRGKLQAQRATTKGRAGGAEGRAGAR", "settings": "10 µM; read-out: Activity (%), TTBK1(h)", "method_in_brief": "as §1"}, "[12]": {"target": "panel of human kinases (kinase named in endpoint) (Homo sapiens, UniProt O43318)", "settings": "10 µM; read-out: Activity (%), TAK1(h)", "method_in_brief": "as §1"}, "[13]": {"target": "panel of human kinases (kinase named in endpoint) (Homo sapiens, UniProt Q9Y2K2)", "settings": "10 µM; read-out: Activity (%), SIK3(h)", "method_in_brief": "as §1"}, "[14]": {"target": "panel of human kinases (kinase named in endpoint) (Homo sapiens, UniProt Q86UE8)", "settings": "10 µM; read-out: Activity (%), TLK2(h)", "method_in_brief": "as §1"}, "[15]": {"target": "panel of human kinases (kinase named in endpoint) (Homo sapiens, UniProt Q9UKE5)", "sequence (Q9UKE5 whole entry)": "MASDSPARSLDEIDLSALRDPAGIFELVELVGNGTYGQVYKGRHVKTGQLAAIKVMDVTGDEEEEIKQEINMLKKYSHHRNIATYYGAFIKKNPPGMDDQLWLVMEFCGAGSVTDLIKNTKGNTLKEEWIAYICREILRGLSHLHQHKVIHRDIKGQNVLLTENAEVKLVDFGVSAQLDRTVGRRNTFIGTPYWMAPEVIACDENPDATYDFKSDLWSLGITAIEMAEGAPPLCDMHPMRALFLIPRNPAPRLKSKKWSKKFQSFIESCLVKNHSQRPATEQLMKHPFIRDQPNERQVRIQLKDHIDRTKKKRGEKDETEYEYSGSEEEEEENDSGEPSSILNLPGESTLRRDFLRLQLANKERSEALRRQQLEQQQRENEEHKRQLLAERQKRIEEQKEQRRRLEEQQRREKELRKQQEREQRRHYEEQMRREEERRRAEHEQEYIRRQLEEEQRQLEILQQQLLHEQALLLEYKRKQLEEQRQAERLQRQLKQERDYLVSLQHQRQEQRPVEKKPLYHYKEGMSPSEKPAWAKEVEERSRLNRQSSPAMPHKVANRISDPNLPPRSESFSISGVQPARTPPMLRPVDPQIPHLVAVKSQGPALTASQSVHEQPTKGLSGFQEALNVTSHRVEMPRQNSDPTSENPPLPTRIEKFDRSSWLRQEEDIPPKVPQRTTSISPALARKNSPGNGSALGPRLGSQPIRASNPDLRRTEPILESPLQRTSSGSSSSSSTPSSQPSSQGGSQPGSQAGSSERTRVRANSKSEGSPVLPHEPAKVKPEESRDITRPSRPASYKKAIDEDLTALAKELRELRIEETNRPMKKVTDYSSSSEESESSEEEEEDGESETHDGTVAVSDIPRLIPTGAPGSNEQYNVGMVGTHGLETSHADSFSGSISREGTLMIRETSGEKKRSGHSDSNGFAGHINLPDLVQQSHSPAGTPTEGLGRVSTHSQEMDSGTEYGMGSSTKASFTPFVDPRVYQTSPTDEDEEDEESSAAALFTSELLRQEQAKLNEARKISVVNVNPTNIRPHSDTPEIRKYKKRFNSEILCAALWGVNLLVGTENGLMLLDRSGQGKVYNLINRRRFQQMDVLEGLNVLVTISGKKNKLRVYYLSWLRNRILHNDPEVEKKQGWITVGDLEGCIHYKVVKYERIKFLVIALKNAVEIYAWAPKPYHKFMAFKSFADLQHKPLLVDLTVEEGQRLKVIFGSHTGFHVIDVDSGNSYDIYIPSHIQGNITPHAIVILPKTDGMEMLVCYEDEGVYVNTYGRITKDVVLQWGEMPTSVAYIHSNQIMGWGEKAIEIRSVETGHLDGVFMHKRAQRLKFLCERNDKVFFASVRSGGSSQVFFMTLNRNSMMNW", "settings": "10 µM; read-out: Activity (%), TNIK(h)", "method_in_brief": "as §1"}, "[16]": {"target": "panel of human kinases (kinase named in endpoint) (Homo sapiens, UniProt Q13237)", "settings": "10 µM; read-out: Activity (%), PRKG2(h)", "method_in_brief": "as §1"}, "[17]": {"target": "panel of human kinases (kinase named in endpoint) (Homo sapiens, UniProt Q9HBY8)", "settings": "10 µM; read-out: Activity (%), SGK2(h)", "method_in_brief": "as §1"}, "[18]": {"target": "panel of human kinases (kinase named in endpoint) (Homo sapiens, UniProt Q13043)", "settings": "10 µM; read-out: Activity (%), MST1(h)", "method_in_brief": "as §1"}, "[19]": {"target": "panel of human kinases (kinase named in endpoint) (Homo sapiens, UniProt Q8TD19)", "settings": "10 µM; read-out: Activity (%), NEK9(h)", "method_in_brief": "as §1"}, "[20]": {"target": "panel of human kinases (kinase named in endpoint) (Homo sapiens, UniProt Q96NX5)", "sequence (Q96NX5 whole entry)": "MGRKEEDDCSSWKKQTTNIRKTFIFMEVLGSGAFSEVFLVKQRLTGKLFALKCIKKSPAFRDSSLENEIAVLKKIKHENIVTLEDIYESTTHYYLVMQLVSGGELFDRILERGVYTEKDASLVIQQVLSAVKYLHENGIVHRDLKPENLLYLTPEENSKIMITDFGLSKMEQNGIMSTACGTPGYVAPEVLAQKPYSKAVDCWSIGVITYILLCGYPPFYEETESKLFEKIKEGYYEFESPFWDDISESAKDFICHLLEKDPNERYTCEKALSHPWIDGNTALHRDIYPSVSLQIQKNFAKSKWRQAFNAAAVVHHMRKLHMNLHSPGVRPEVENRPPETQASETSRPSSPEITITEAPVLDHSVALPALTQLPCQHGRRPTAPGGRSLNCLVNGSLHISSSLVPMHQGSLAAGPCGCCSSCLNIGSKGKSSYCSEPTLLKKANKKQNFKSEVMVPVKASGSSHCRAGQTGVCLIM", "settings": "10 µM; read-out: Activity (%), CaMKIγ(h)", "method_in_brief": "as §1"}, "[21]": {"target": "panel of human kinases (kinase named in endpoint) (Homo sapiens, UniProt P51957)", "sequence (P51957 whole entry)": "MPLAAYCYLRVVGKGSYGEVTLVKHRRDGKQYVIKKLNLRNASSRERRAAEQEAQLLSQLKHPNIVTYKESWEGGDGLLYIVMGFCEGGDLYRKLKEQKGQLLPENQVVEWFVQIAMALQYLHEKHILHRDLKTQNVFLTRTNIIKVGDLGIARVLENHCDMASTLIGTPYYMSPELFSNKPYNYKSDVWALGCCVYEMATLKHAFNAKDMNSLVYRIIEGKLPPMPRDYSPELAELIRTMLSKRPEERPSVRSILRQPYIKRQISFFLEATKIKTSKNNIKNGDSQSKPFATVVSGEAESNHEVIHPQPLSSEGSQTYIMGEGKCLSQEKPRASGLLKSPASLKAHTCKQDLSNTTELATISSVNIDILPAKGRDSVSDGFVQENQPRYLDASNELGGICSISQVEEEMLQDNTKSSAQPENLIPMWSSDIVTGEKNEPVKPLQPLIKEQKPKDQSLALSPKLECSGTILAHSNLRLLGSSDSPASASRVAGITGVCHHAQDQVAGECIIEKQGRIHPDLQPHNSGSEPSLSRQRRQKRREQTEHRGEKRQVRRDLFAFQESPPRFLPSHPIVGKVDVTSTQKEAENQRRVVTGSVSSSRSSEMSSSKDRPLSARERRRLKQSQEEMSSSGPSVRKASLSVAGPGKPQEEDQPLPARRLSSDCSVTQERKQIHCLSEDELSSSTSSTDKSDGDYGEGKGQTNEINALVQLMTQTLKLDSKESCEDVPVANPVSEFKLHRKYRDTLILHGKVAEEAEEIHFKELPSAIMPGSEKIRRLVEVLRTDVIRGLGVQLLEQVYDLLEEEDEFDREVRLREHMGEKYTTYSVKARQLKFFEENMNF", "settings": "10 µM; read-out: Activity (%), NEK4(h)", "method_in_brief": "as §1"}, "[22]": {"target": "panel of human kinases (kinase named in endpoint) (Homo sapiens, UniProt P28482)", "settings": "10 µM; read-out: Activity (%), MAPK2(h)", "method_in_brief": "as §1"}, "[23]": {"target": "panel of human kinases (kinase named in endpoint) (Homo sapiens, UniProt P07949, V804L)", "settings": "10 µM; read-out: Activity (%), Ret (V804L)(h)", "method_in_brief": "as §1"}, "[24]": {"target": "panel of human kinases (kinase named in endpoint) (Homo sapiens, UniProt P07949, V804M)", "settings": "10 µM; read-out: Activity (%), Ret(V804M)(h)", "method_in_brief": "as §1"}, "[25]": {"target": "panel of human kinases (kinase named in endpoint) (Homo sapiens, UniProt Q8IY84)", "settings": "10 µM; read-out: Activity (%), NIM1(h)", "method_in_brief": "as §1"}}, "data": [{"compound": "CC(C)C(=O)Nc1nc2cc(-c3ccc4c(c3)c(C(=O)NC(C)c3ccccc3)cn4C)ccn2n1", "note": "(stereo not shown) [RI-962]", "values": [{"measurement": "activity at 10 µM", "setting": "[1]", "value": 110, "unit": "%"}, {"measurement": "activity at 10 µM", "setting": "[2]", "value": 93, "unit": "%"}, {"measurement": "activity at 10 µM", "setting": "[3]", "value": 96, "unit": "%"}, {"measurement": "activity at 10 µM", "setting": "[4]", "value": 109, "unit": "%"}, {"measurement": "activity at 10 µM", "setting": "[5]", "value": 100, "unit": "%"}, {"measurement": "activity at 10 µM", "setting": "[6]", "value": 104, "unit": "%"}, {"measurement": "activity at 10 µM", "setting": "[7]", "value": 111, "unit": "%"}, {"measurement": "activity at 10 µM", "setting": "[8]", "value": 88, "unit": "%"}, {"measurement": "activity at 10 µM", "setting": "[9]", "value": 99, "unit": "%"}, {"measurement": "activity at 10 µM", "setting": "[10]", "value": 100, "unit": "%"}, {"measurement": "activity at 10 µM", "setting": "[11]", "value": 92, "unit": "%"}, {"measurement": "activity at 10 µM", "setting": "[12]", "value": 90, "unit": "%"}, {"measurement": "activity at 10 µM", "setting": "[13]", "value": 100, "unit": "%"}, {"measurement": "activity at 10 µM", "setting": "[14]", "value": 78, "unit": "%"}, {"measurement": "activity at 10 µM", "setting": "[15]", "value": 65, "unit": "%"}, {"measurement": "activity at 10 µM", "setting": "[16]", "value": 105, "unit": "%"}, {"measurement": "activity at 10 µM", "setting": "[17]", "value": 120, "unit": "%"}, {"measurement": "activity at 10 µM", "setting": "[18]", "value": 95, "unit": "%"}, {"measurement": "activity at 10 µM", "setting": "[19]", "value": 85, "unit": "%"}, {"measurement": "activity at 10 µM", "setting": "[20]", "value": 113, "unit": "%"}, {"measurement": "activity at 10 µM", "setting": "[21]", "value": 104, "unit": "%"}, {"measurement": "activity at 10 µM", "setting": "[22]", "value": 90, "unit": "%"}, {"measurement": "activity at 10 µM", "setting": "[23]", "value": 103, "unit": "%"}, {"measurement": "activity at 10 µM", "setting": "[24]", "value": 115, "unit": "%"}, {"measurement": "activity at 10 µM", "setting": "[25]", "value": 88, "unit": "%"}]}]}
